pIC50: −log10 of the molar value.

The values that follow come from patent publication US10603319B2, “Pyrimidine derivatives and their use in treating or preventing a respiratory syncytial virus infection” (REVIRAL LIMITED, priority 2016, dated 2020).

The target of one assay is T1, RSV A2_F (Human respiratory syncytial virus A, UniProt P03420).
T1 construct: expressed in transfected cells; host or cells: HEK 293T/17
T1 sequence (P03420 137-574): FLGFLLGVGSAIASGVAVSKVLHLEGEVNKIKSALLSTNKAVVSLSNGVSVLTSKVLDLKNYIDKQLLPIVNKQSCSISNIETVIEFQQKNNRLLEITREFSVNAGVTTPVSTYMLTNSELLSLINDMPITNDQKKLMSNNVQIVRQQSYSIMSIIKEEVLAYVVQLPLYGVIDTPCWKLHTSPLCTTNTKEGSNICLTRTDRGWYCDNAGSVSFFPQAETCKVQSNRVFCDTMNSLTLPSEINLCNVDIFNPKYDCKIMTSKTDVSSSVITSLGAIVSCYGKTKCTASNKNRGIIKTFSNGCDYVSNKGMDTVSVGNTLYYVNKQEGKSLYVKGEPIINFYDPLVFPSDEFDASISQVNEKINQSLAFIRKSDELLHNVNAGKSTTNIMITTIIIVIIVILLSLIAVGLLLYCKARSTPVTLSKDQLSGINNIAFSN
T1 sequence (P03420 26-109): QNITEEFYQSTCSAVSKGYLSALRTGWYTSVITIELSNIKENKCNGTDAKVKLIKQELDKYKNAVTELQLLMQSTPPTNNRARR
Description: RSV fusion assay (luciferase reporter, HEK 293T/17 cells transfected with A2_F). The class given is cell-based. The note with it: Fusion activity IC50 μM, HEK 293T/17 cells, 24 hr. On the procedure:
HEK 293T/17 cells were cultured in T75 culture flasks in Dulbecco's medium (DMEM) containing 10% FBS and 1× Penicillin-Streptomycin (Pen/Strep) and warmed to 37° C. prior to use. The cells were passaged by first washing briefly with 3 ml phosphate buffered saline (PBS) followed by a 4 min incubation with […] at 37° C. 7 ml media was then added to the flask and the cells dispersed via pipetting (×3) against the bottom of the flask. Two further T75 flasks were each seeded with 2×10^6 cells in 15 ml fresh media.
Cells were seeded on the T75 plates at the same density as on the 6-well plates the area of a T75 flask and one 1.75 cm radius well from a 6-well plate were compared. 7.79×2 ml of 3×10^5 cells ml^−1 was used to seed a single T75 flask.
HEK cells were removed from a T75 flask as described above. The cells were counted and diluted to 3×10^5 cells/ml in fresh media. Two T75 flasks were each seeded with 15.58 ml diluted cells.
The plasmid DNA (for pFR-Luc and pcDNA3.1_Gal4/NFκB) to be transfected into the HEK cells was first prepared in serum free media (DMEM+Pen/Strep) containing the transfection reagent Fugene 6 (Promega). Transfections were set up as follows (Luc=pFR_Luc, Gal4=pcDNA3.1+_Gal4/NFκB, A2_F=pcDNA3.1+_A2_F)
Serum free media was placed in a 1.5 ml eppendorf tube then the fugene 6 was added into the media. The tube was vortexed for 1 s before being incubated at RT for 5 min. The plasmid DNA was then added to the tube, vortexed for 1 s, then incubated at RT for 15 min
The transfection reagents were then added to the appropriate T75 flask by tipping the flask on end and adding the reagents directly to the media already in the flask. The flask was then tipped on its back so the media could be mixed thoroughly whilst not disturbing the cells before placing the flask the right way up and incubating overnight at 37° C. and 5% CO2.
Compounds were diluted (in a polypropylene round-bottomed 96 well plate) 1:3 in a twelve point dilution curve to give top [final] of either 3.3 μM, 1 μM, 500 nM 200 nM or 100 nM. The Control compound was always run at a concentration of 100 nM.
The cells were then counted and diluted to 4×10^5 cells/ml in fresh media. 50 μl of transfection population 1 cells were added to all wells of the assay plates. 100 μl diluted compound (2 rows per compound), standard curve (one row) and controls (100 nM RV (100% inhibition, four wells), DMSO (0% inhibition, eight wells)) were added to the appropriate wells. 50 μl of the diluted (4×10^5 cells/ml) transfection population 2 cells when then added to all wells.
The plates were then incubated for 24 hr at 37° C. and 5% CO2
Buffers were prepared for the luciferase assay (20 mM tricine, 10 mM MgSO4, 1 mM EDTA, 10 mM DTT) and lysis (25 mM tris-phosphate, 8 mM MgCl2, 1 mM DTT, 1% Triton X-100, 15% glycerol) and stored at −20° C.
Luminescence was measured as described:
Media was discarded into Virkon and the plates washed with 100 ul PBS per well. 20 ul/well of lysis buffer was added to each well and incubated shaking for 5 min at RT. Luciferin was added to LAAB at a dilution of 1:50 to give a working luciferin buffer. 100 μl working luciferin buffer was added to each well and luminescence was measured immediately. […]
(In general: A reporter such as luciferase makes a cellular process visible.)
For orientation: IC50 means the concentration needed to halve the response being measured. A lower IC50 goes with higher potency. `NC1CCN(c2ncc(CN3C(=O)C4(CC4)c4ccc(F)cc43)c(NCCN3CCOCC3)n2)C1` (stereo not drawn) [Compound 3, 1′-((2-(3-Aminopyrrolidin-1-yl)-4-((2-morpholinoethyl)amino)pyrimidin-5-yl)methyl)-6′-fluorospiro[cyclopropane-1,3′-indolin]-2′-one] displayed an IC50 of 4.18 µM. In other words, the single-digit micromolar range.

As to `CC(C)CNc1nc(N2CCC(CN)CC2)ncc1CN1C(=O)C2(CC2)c2ccc(F)cc21` [Compound 6], the 50% inhibitory concentration (IC50) worked out at 5.22 µM.

On to `CC(C)CCNc1nc(N2CCCC2)ncc1CN1C(=O)C2(CC2)c2ccc(F)cc21` [Compound 7, 6′-Fluoro-1′-((4-(isopentylamino)-2-(pyrrolidin-1-yl)pyrimidin-5-yl)methyl)spiro[cyclopropane-1,3′-indolin]-2′-one], for which the IC50 turned out to be 1.99 µM.

With `CC(C)CNc1nc(N2CCOCC2)ncc1CN1C(=O)C2(CC2)c2ccc(F)cc21` [Compound 8, 6′-Fluoro-1′-((4-(isobutylamino)-2-morpholinopyrimidin-5-yl)methyl)spiro[cyclopropane-1,3′-indolin]-2′-one], the IC50 is 8.53 µM.

The molecule `NC1CCN(c2ncc(CN3C(=O)C4(CC4)c4ccc(F)cc43)c(N3CCOCC3)n2)C1` (stereo not drawn) [Compound 9, 1′-((2-(3-Aminopyrrolidin-1-yl)-4-morpholinopyrimidin-5-yl)methyl)-6′-fluorospiro[cyclopropane-1,3′-indolin]-2′-one] had an IC50 of 3.66 µM.

`NC1CCN(c2ncc(CN3C(=O)C4(CC4)c4ccc(F)cc43)c(NC3CCOCC3)n2)C1` (stereo not drawn) [Compound 10, 1′-((2-(3-Aminopyrrolidin-1-yl)-4-((tetrahydro-2H-pyran-4-yl)amino)pyrimidin-5-yl)methyl)-6′-fluorospiro[cyclopropane-1,3′-indolin]-2′-one] gave an IC50 of 0.184 µM.

Regarding `COCCCNc1nc(N2CCC(N)C2)ncc1CN1C(=O)C2(CC2)c2ccc(F)cc21` (stereo not drawn) [Compound 11, 1′-((2-(3-Aminopyrrolidin-1-yl)-4-((3-methoxypropyl)amino)pyrimidin-5-yl)methyl)-6′-fluorospiro[cyclopropane-1,3′-indolin]-2′-one], 0.424 µM corresponded to half-maximal inhibition (IC50).

The molecule `NC1CCN(c2nc(NCCCCO)ncc2CN2C(=O)C3(CC3)c3ccc(F)cc32)C1` (stereo not drawn) [Compound 12, 1′-((4-(3-Aminopyrrolidin-1-yl)-2-((4-hydroxybutyl)amino)pyrimidin-5-yl)methyl)-6′-fluorospiro[cyclopropane-1,3′-indolin]-2′-one] had an IC50 of 4.78 µM.

Take `NC1CCN(c2ncc(CN3C(=O)C4(CC4)c4ccc(F)cc43)c(N3CCS(=O)(=O)CC3)n2)C1` (stereo not drawn) [Compound 13, 1′-((2-(3-Aminopyrrolidin-1-yl)-4-(1,1-dioxidothiomorpholino)pyrimidin-5-yl)methyl)-6′-fluorospiro[cyclopropane-1,3′-indolin]-2′-one]: the IC50 amounted to 5.04 µM.

The molecule `CS(=O)(=O)N1CCN(c2nc(N3CCC(N)C3)ncc2CN2C(=O)C3(CC3)c3ccc(F)cc32)CC1` (stereo not drawn) [Compound 14, 1′-{[2-(3-Aminopyrrolidin-1-yl)-4-(4-methanesulfonylpiperazin-1-yl)pyrimidin-5-yl]methyl}-6′-fluoro-1′,2′ dihydrospiro[cyclopropane-1,3′-indole]-2′-one] yielded an IC50 of 1.2 µM. Compared with the last molecule, the IC50 is about 4.2-fold lower.

In turn, `NC1CCN(c2ncc(CN3C(=O)C4(CC4)c4ccc(F)cc43)c(SCCCCO)n2)C1` (stereo not drawn) [Compound 16, 1′-{[2-(3-Aminopyrrolidin-1-yl)-4-[(4-hydroxybutyl)sulfanyl]pyrimidin-5-yl]methyl}-6′-fluoro-1′,2′-dihydrospiro[cyclopropane-1,3′-indole]-2′-one] had an IC50 of 2.79 µM.

As for `CC(=O)N1CCN(c2nc(N3CCC(N)C3)ncc2CN2C(=O)C3(CC3)c3ccc(F)cc32)CC1` (stereo not drawn) [Compound 17, 1′-{[4-(4-Acetylpiperazin-1-yl)-2-(3-aminopyrrolidin-1-yl)pyrimidin-5-yl]methyl}-6′-fluoro-1′,2′-dihydrospiro[cyclopropane-1,3′-indole]-2′-one], half-maximal inhibition (IC50) required 5.46 µM.

`CS(=O)(=O)CCNc1nc(N2CCC(N)C2)ncc1CN1C(=O)C2(CC2)c2ccc(F)cc21` (stereo not drawn) [Compound 18, 1′-{[2-(3-Aminopyrrolidin-1-yl)-4-[(2-methanesulfonylethyl)amino]pyrimidin-5-yl]methyl}-6′-fluoro-1′,2′-dihydrospiro[cyclopropane-1,3′-indole]-2′-one] had an IC50 of 0.885 µM.

`NC1CCN(c2ncc(CN3C(=O)C4(CC4)c4ccc(F)cc43)c(NCCCCCO)n2)C1` (stereo not drawn) [Compound 19, 1′-{[2-(3-Aminopyrrolidin-1-yl)-4-[(5-hydroxypentyl)amino]pyrimidin-5-yl]methyl}-6′-fluoro-1′,2′-dihydrospiro[cyclopropane-1,3′-indole]-2′-one] showed an IC50 of 0.362 µM.

`NC1CCN(c2ncc(CN3C(=O)C4(CC4)c4ccc(F)cc43)c(OCCCF)n2)C1` (stereo not drawn) [Compound 22, 1′-{[2-(3-Aminopyrrolidin-1-yl)-4-(3-fluoropropoxy)pyrimidin-5-yl]methyl}-6′-fluoro-1′,2′-dihydrospiro[cyclopropane-1,3′-indole]-2′-one] had an IC50 of 0.951 µM.

Regarding `NC1CCN(c2ncc(CN3C(=O)C4(CC4)c4ccc(F)cc43)c(NCC3CCOCC3)n2)C1` (stereo not drawn) [Compound 23, 1′-{[2-(3-Aminopyrrolidin-1-yl)-4-{[(oxan-4-yl)methyl]amino}pyrimidin-5-yl]methyl}-6′-fluoro-1′,2′-dihydrospiro[cyclopropane-1,3′-indole]-2′-one], it took 0.451 µM to reach half-maximal inhibition (IC50).

As for `NC1CCN(c2ncc(CN3C(=O)C4(CC4)c4ccc(F)cc43)c(NCCCCO)n2)CC1` [Compound 24, 1′-{[2-(4-Aminopiperidin-1-yl)-4-[(4-hydroxybutyl)amino]pyrimidin-5-yl]methyl}-6′-fluoro-1′,2′-dihydrospiro[cyclopropane-1,3′-indole]-2′-one], the IC50 was 0.695 µM. Compared with the last molecule, the IC50 is about 1.5-fold higher.

Staying with this assay, now noted: Fusion activity PIC50, HEK 293T/17 cells, 24 hr.
A word on the pIC50: it is −log10 of the IC50, conventionally taken in molar units. Lower therefore signals a high IC50. `NC1CCN(c2ncc(CN3C(=O)C4(CC4)c4ccc(F)cc43)c(SCCCCO)n2)C1` (stereo not drawn) [Compound 16, 1′-{[2-(3-Aminopyrrolidin-1-yl)-4-[(4-hydroxybutyl)sulfanyl]pyrimidin-5-yl]methyl}-6′-fluoro-1′,2′-dihydrospiro[cyclopropane-1,3′-indole]-2′-one] had a pIC50 of 5.56.

Regarding `NC1CCN(c2ncc(CN3C(=O)C4(CC4)c4ccc(F)cc43)c(C#CCCCO)n2)C1` (stereo not drawn) [Compound 21, 1′-{[2-(3-Aminopyrrolidin-1-yl)-4-(5-hydroxypent-1-yn-1-yl)pyrimidin-5-yl]methyl}-6′-fluoro-1′,2′-dihydrospiro[cyclopropane-1,3′-indole]-2′-one], the pIC50 is 4.60.

The next assay deals with RSV A2 VR-1540. Description: Plaque Reduction Assay 2 (HEp-2 cells, virospot count). The class given is cell-based. The note with it: human respiratory syncytial virus, 24 h; RSV A2, HEp-2 cells, 1 day. From the text: Plaque Reduction Assay 2:
This RSV plaque reduction assay is an infectivity assay which allows quantification of the number of infectious units in a distinct foci of RSV infection. This is indicated by zones of viral antigen detected by specific antibody staining within a monolayer of otherwise healthy tissue culture cells. As each plaque originates from a single infectious virus particle an accurate calculation of the anti-viral effect can be obtained by counting plaques in the presence and absence of an anti-viral compound. HEp-2 cells (ATCC, CCL23) were passaged in flasks and seeded in 96-well plates in DMEM containing antibiotics and supplemented with 10% FBS. During inoculation and subsequent incubation, cells were cultured in DMEM containing 3% FBS. 100 plaque forming unit (PFU)/well of RSV (RSV A2 VR-1540) was mixed with ten serial dilutions of compound. Subsequently, 100 μL of the virus/compound mixtures was added to confluent HEp-2 cell monolayers. The cells and virus/compound mixtures were incubated at 35° C. in a humidified 5% CO2 incubator for 1 day.
Cells were washed twice with PBS before adding 50% v/v EtOH/MeOH, and then stored at −20° C. On the day of the staining, fixative was first removed from the plates. Plates were washed 3× with PBS. A pre-titrated amount of the primary antibody was added in 60 μL PBS/2% milk powder, and plates incubated for 1 h at rt. The plates were washed 3× with PBS/0.05% Tween20 before addition of goat anti-mouse horse radish peroxidase in 60 μL PBS/2% milk powder, and incubated for 1 h at rt. Following three wash steps with PBS/0.05% Tween20, 60 μL ready-to-use TrueBlue was added and plates were incubated at rt for 10-15 min before adding MilliQ water. Plates were washed once with water, incubated for 30-60 min and after removal of water, air-dried in the dark.
Plates were scanned and analyzed using the Immunospot S6 UV analyzer, which is equipped with BioSpot analysis software for counting immunostained plaques (virospots). Plaque counts were used to calculate % infection relative to the mean of the spot count (SC) in the virus control wells for RSV. IC50/IC90 values were calculated as 50% or 90% reduction in signal, respectively, by interpolation of inhibition curves fitted with a 4-parameter nonlinear regression with a variable slope in GraphPad 5.0 (Prism).
For orientation: Plaques are areas of infected cells; plaque reduction assays count them against a control.
`NC1CCN(c2ncc(CN3C(=O)C4(CC4)c4ccc(F)cc43)c(NC3CCOCC3)n2)C1` (stereo not drawn) [Compound 10, 1′-((2-(3-Aminopyrrolidin-1-yl)-4-((tetrahydro-2H-pyran-4-yl)amino)pyrimidin-5-yl)methyl)-6′-fluorospiro[cyclopropane-1,3′-indolin]-2′-one] gave a pIC50 of 7.48.

`NC1CCN(c2ncc(CN3C(=O)C4(CC4)c4ccc(F)cc43)c(N3CCS(=O)(=O)CC3)n2)C1` (stereo not drawn) [Compound 13, 1′-((2-(3-Aminopyrrolidin-1-yl)-4-(1,1-dioxidothiomorpholino)pyrimidin-5-yl)methyl)-6′-fluorospiro[cyclopropane-1,3′-indolin]-2′-one] had a pIC50 of 6.37.
